# Calls of active or inactive are those of the source.
# Columns and labels:
# [1] = target: T1, Rac GTPase-activating protein 1 (Homo sapiens, UniProt Q9H0H5); assay: blockers of MgcRacGAP-driven Rac1 GTP hydrolysis – biochemical, ADP Hunter fluorescence, primary and confirmatory, confirmation (AID 624330); assay type: functional
# T1 sequence (Q9H0H5 whole entry): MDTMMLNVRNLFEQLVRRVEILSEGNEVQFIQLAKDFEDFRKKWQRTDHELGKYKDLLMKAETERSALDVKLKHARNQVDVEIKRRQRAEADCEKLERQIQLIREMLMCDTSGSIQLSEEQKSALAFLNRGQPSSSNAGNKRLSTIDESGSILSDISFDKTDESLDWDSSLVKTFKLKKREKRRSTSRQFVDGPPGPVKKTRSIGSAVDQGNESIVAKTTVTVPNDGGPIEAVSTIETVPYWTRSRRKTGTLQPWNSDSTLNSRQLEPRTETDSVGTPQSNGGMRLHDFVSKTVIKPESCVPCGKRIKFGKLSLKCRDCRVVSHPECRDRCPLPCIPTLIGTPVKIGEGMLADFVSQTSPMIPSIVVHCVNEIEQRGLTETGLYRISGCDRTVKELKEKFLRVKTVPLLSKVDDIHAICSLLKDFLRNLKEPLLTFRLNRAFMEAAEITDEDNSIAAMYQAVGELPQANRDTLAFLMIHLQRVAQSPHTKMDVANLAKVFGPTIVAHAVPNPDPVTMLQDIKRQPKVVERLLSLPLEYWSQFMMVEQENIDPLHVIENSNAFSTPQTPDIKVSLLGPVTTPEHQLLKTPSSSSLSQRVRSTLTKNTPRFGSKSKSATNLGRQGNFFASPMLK
# [2] = system: Streptococcus sp. 'group A'; assay: Streptococcus pyogenes SK(-)GAS viability under kanamycin – luminescence, BacTiterGlo, confirmation, counter-screen for streptokinase expression inhibitor project, dose response (AID 1900); assay type: functional, organism-based
# Streptokinase A = target: T2, Streptokinase A (Streptococcus pyogenes serotype M1, UniProt P10520); assay: viability-normalized secreted streptokinase activity reduction – plasminogen activation absorbance, OD405, dose response (AID 1914); assay type: functional, Streptococcus pyogenes M1 GAS;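 note: secreted streptokinase activity via plasminogen activation per viability signal from cell pellet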
# T2 sequence (P10520 whole entry): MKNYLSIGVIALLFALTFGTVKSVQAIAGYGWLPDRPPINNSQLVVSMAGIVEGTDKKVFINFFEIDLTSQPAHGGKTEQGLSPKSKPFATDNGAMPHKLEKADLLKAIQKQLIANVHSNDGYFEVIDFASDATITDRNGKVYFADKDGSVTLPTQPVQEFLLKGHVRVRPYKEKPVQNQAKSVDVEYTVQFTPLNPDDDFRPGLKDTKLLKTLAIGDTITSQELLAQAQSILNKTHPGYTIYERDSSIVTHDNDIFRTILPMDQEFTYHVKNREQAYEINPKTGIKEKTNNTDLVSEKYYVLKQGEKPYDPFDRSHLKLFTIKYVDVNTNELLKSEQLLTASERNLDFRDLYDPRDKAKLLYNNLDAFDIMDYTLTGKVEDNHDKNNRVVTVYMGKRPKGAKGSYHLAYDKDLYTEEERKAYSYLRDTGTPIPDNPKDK
# Streptococcus = assay: GAS UMAA2166 growth inhibition – luminescence, BacTiterGlo, counter-screen for streptokinase expression inhibitor project, dose response (AID 1915); assay type: functional, organism-based;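 note: potency for reduction of bacterial viability or growth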
# [3] = target: T3, Replicative DNA helicase DnaB (Mycobacterium tuberculosis, UniProt P9WMR3); assay: DnaB intein splicing inhibitors, dose response, biochemical, cell-free fluorescence (AID 449749); assay type: functional
# T3 sequence (P9WMR3 whole entry): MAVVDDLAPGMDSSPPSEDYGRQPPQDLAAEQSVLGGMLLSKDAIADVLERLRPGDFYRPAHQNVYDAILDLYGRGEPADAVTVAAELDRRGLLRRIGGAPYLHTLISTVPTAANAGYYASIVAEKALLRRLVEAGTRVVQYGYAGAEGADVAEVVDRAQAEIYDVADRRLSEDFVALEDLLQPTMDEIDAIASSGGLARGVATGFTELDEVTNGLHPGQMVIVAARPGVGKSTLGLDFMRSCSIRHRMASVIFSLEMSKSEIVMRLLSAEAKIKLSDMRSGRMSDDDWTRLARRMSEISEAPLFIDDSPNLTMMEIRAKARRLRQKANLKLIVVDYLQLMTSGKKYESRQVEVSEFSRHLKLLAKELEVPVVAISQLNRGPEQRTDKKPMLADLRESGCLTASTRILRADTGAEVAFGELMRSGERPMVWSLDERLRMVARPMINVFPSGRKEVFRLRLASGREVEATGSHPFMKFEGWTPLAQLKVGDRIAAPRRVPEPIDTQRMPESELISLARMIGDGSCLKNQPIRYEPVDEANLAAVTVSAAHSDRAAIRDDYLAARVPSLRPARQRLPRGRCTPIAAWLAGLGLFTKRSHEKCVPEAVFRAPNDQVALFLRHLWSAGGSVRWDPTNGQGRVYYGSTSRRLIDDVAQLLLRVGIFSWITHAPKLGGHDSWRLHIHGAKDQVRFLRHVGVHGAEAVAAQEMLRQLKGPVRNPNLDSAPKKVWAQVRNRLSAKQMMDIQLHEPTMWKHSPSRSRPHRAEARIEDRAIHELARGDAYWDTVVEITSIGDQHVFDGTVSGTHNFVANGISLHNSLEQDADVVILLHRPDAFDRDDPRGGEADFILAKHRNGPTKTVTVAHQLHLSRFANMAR
# Protein RecA = target: T4, Protein RecA (Mycobacterium tuberculosis, UniProt P9WHJ3); assay: Fluorescence Cell-Free Homogeneous Dose Retest to Identify Inhibitors of RecA-Intein Splicing Activity. [Related pubchem assays (depositor defined):AID2097, AID2223, AID489010, AID492950]; assay type: functional
# T4 sequence (P9WHJ3 whole entry): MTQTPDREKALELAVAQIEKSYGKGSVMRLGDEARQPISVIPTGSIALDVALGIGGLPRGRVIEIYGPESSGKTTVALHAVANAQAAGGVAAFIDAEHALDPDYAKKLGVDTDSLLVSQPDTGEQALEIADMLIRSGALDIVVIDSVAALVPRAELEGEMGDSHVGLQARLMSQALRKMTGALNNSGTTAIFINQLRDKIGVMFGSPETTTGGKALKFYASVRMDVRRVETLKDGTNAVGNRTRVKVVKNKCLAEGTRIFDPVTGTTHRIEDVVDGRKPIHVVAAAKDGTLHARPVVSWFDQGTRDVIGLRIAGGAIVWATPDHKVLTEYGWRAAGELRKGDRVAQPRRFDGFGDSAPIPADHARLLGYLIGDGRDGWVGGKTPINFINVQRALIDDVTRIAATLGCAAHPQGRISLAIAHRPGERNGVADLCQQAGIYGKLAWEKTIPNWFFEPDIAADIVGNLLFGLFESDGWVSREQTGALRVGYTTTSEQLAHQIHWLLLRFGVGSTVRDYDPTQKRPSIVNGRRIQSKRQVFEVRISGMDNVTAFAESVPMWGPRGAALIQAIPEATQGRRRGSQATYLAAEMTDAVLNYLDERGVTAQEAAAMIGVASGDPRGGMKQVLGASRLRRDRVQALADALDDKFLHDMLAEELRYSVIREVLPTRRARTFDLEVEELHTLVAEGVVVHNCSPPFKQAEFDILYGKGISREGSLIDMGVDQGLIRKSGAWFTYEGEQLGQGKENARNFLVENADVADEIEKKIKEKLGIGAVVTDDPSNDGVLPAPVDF
# Cytochrome P450 2D6 = Cytochrome P450 2D6 (Homo sapiens, UniProt P10635);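 note: CYP2D6 member of a cytochrome P450 panel assay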
# Cytochrome P450 2D6, sequence (P10635 whole entry): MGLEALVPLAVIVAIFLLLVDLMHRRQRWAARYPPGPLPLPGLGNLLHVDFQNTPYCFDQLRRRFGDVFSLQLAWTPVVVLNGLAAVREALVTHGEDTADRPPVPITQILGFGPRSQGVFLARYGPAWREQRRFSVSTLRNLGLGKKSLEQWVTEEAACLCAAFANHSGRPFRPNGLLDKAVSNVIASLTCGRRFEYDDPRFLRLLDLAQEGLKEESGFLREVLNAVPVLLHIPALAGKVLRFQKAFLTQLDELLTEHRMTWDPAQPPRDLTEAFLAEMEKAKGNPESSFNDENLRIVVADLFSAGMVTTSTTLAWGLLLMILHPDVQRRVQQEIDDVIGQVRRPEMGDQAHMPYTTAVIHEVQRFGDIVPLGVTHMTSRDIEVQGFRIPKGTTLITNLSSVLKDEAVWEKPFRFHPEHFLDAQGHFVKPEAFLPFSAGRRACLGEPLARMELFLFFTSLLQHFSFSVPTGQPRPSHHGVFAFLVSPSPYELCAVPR
# Cytochrome P450 1A2 = target: T5, Cytochrome P450 1A2 (Homo sapiens, UniProt P05177);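 note: PubChem cytochrome P450 panel assay, CYP1A2 panel member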
# T5 sequence (P05177 whole entry): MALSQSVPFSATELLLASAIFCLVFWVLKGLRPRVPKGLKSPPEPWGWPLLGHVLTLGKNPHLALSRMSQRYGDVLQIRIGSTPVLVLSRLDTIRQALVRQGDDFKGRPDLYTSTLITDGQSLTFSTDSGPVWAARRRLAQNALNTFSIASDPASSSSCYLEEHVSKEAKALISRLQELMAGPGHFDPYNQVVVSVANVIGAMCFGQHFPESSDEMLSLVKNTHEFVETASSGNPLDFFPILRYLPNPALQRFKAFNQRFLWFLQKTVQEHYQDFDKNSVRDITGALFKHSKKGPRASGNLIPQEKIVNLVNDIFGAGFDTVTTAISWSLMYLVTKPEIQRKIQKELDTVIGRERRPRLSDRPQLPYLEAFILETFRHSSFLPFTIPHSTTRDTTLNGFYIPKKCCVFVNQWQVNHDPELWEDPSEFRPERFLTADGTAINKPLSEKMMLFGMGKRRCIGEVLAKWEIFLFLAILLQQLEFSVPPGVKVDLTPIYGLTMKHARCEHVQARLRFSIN
# Cytochrome P450 2C9 = Cytochrome P450 2C9 (Homo sapiens, UniProt P11712)
# Cytochrome P450 2C9, sequence (P11712 whole entry): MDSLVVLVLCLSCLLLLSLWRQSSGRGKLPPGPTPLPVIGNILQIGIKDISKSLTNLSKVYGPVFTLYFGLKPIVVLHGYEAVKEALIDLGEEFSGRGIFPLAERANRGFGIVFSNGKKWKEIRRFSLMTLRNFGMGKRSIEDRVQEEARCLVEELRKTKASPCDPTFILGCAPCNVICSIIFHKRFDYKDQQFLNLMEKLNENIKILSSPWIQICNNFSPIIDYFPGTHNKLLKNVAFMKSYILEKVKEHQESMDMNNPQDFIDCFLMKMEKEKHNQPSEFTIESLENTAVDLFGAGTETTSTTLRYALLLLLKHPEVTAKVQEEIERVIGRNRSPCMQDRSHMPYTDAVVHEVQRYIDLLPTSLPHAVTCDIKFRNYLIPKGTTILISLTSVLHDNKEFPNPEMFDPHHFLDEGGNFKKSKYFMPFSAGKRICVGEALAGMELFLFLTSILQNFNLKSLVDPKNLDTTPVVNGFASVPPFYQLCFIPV
# Cytochrome P450 3A4 = Cytochrome P450 3A4 (Homo sapiens, UniProt P08684);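 note: CYP3A4 tested as one member of a cytochrome P450 panel screen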
# Cytochrome P450 3A4, sequence (P08684 whole entry): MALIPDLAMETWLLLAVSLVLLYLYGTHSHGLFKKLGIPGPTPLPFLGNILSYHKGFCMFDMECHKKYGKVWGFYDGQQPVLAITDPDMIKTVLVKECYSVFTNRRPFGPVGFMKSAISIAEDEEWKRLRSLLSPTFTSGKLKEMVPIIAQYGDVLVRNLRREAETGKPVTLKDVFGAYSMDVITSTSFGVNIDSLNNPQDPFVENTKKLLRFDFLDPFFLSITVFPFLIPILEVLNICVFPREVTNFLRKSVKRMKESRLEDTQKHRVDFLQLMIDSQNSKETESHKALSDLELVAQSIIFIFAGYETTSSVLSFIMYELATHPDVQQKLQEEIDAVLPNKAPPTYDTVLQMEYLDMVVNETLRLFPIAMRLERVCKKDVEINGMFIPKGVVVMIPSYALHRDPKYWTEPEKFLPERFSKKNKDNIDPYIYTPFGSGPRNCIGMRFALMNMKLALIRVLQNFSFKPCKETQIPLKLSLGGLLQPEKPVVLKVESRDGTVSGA
# [4] = Luminescence Cell-Based Dose Retest to Confirm Inhibitors of Cancer Stem Cells. [Related pubchem assays (depositor defined):AID2717, AID2721]; assay type: functional; conditions: Homo sapiens
# Cytochrome P450 2C19 = Cytochrome P450 2C19 (Homo sapiens, UniProt P33261); assay: Cytochrome panel assay with activity outcomes. Panel member name: p450-cyp2c19 Compounds with AC50 equal or less than 10 uM are considered active; assay type: functional
# Cytochrome P450 2C19, sequence (P33261 whole entry): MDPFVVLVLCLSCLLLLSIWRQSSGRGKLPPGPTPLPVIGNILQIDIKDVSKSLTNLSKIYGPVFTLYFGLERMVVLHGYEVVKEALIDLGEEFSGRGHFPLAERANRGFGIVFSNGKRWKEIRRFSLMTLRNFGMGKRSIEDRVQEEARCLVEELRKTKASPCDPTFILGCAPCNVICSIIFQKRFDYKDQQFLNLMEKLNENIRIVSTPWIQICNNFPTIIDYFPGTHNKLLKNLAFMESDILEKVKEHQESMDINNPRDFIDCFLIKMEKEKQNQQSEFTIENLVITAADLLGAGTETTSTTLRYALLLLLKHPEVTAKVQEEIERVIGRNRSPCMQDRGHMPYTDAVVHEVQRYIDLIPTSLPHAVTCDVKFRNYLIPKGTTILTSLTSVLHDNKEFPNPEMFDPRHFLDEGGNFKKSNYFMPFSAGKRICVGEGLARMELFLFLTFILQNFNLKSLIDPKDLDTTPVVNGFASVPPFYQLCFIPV
smiles,measurement,setting,value
CC1=CC(C)(C)N(C(=O)CNC2CCCC2)c2cc(C)ccc21,IC50,[1],158 µM (active)
Nc1ccccc1Sc1nc2ccccc2[nH]1,EC50,[2],21.3 µM (active)
same,EC50,Streptokinase A,> 150 µM (not active)
same,EC50,Streptococcus,> 150 µM (not active)
Cc1nc(Nc2ccc(O)cc2)c2c3c(sc2n1)CCCC3,AC50,[3],> 380 µM (inactive)
same,EC50,Protein RecA,125 µM (active)
same,IC50,[1],28.8 µM (active)
COc1cccc(Cn2c(=O)cnc3cnc(Oc4cccc(Cl)c4)nc32)c1,AC50,Cytochrome P450 2D6,39.8 µM (inconclusive)
Cc1ccccc1C(OCC(O)CN1CCN(CCO)CC1)c1ccccc1 (stereo not given),IC50,[1],80.2 µM (active)
CCCCn1c(C)cc2cc(O)ccc21,IC50,[1],26.9 µM (active)
CCC(C)(C)n1nnnc1C(c1cc2cc3c(cc2nc1O)OCO3)N1CCCCC1 (stereo not given),AC50,Cytochrome P450 1A2,17.8 µM (inconclusive)
same,AC50,Cytochrome P450 2C9,0.02 µM (inconclusive)
Cc1cc(OC(=O)CCCNC(=O)OC(C)(C)C)c2c3c(c(=O)oc2c1)CCC3,AC50,Cytochrome P450 2D6,15.8 µM (inconclusive)
CCC(=O)OCc1c(C(F)(F)F)nn(C)c1Sc1ccc(F)cc1,AC50,Cytochrome P450 1A2,12.6 µM (inconclusive)
same,AC50,Cytochrome P450 3A4,25.1 µM (inconclusive)
Cc1cc(=O)oc2cc(OCC(=O)N3CCN(C(=O)C4COc5ccccc5O4)CC3)ccc12 (stereo not given),EC50,[2],2.83 µM (active)
same,EC50,Streptokinase A,> 50 µM (not active)
same,EC50,Streptococcus,10.4 µM (active)
Cc1ccc(C)c(OCCCCN2CCCCC2)c1,IC50,[1],176 µM (active)
CCOC(=O)c1c(S(=O)(=O)N2CCCCCC2)c(C)n(C)c1C,EC50,[2],> 150 µM (not active)
same,EC50,Streptokinase A,> 150 µM (not active)
same,EC50,Streptococcus,> 150 µM (not active)
CC(C)(C)OC(=O)[C@H](Cc1ccccc1)NC(=O)c1[nH]cnc1C(=O)Nc1ccc(Cl)cc1,EC50,[2],3.71 µM (active)
same,EC50,Streptokinase A,21.5 µM (active)
same,EC50,Streptococcus,11.1 µM (active)
same,AC50,[4],4.51 µM (active)
Cc1oc2cc(Br)c(O)c(Br)c2c1-c1ccccc1,EC50,[2],8.24 µM (active)
same,EC50,Streptokinase A,> 150 µM (not active)
same,EC50,Streptococcus,8.18 µM (active)
O=C(NCc1ccccc1)c1cccc(COc2cccc(Cl)c2)c1,AC50,Cytochrome P450 2D6,31.6 µM (inconclusive)
O=C(CN1CCN(c2ccc(O)cc2)CC1)NCC(=O)Nc1ccc(F)c(F)c1F,IC50,[1],47 µM (active)
COC(=O)CSc1nnc(C)n1-c1cccc(OC)c1,AC50,Cytochrome P450 2D6,3.16 µM (inconclusive)
c1ccc(-c2cc(-c3ccncc3)nc3ccc4ccccc4c23)cc1,EC50,[2],3.37 µM (active)
same,EC50,Streptokinase A,> 150 µM (not active)
same,EC50,Streptococcus,8.51 µM (active)
same,AC50,[4],3.39 µM (active)
Fc1ccccc1OCCCCSc1ncccn1,AC50,Cytochrome P450 2D6,17.8 µM (inconclusive)
Cc1c(O)ccc(NC(=O)/C=C/c2ccccc2)c1C,IC50,[1],41.8 µM (active)
c1cncc(-c2cncnc2NCc2cccs2)c1,AC50,Cytochrome P450 2D6,39.8 µM (inconclusive)
COc1cccc(-c2cncnc2Nc2ccc(F)cc2)c1,AC50,Cytochrome P450 2D6,39.8 µM (inconclusive)
CC1CCC/C(=C\c2ccc(O)cc2)C1=O (stereo not given),IC50,[1],26.6 µM (active)
O=C(O)c1cc2cc(OCc3ccccc3)ccc2[nH]1,AC50,Cytochrome P450 1A2,6.31 µM (inconclusive)
same,AC50,Cytochrome P450 2C9,25.1 µM (inconclusive)
Cc1cc(-c2c(C)[nH]n(-c3ccc(Cl)cc3)c2=O)n[nH]1,EC50,Streptokinase A,> 150 µM (not active)
O=C(/C(=N\Nc1ccc([N+](=O)[O-])cc1)Sc1nnnn1-c1ccccc1)c1ccccc1,EC50,[2],5.19 µM (active)
same,EC50,Streptokinase A,> 150 µM (not active)
same,EC50,Streptococcus,35.8 µM (active)
O=C(CNC(=O)c1ccncc1)N/N=C/c1ccc(O)cc1O,IC50,[1],75.5 µM (active)
CC(C)(C)c1nnc(N/N=C/c2ccc(O)cc2)n(N)c1=O,IC50,[1],123 µM (active)
N[C@@H](COP(=O)(O)O)C(=O)O [DEXFOSFOSERINE],AC50,Cytochrome P450 2C19,inconclusive
same,AC50,Cytochrome P450 1A2,25.1 µM (inconclusive)
same,AC50,Cytochrome P450 3A4,0.794 µM (inconclusive)
C[C@]12CC[C@@H]3c4ccc(OC(=O)c5ccccc5)cc4CC[C@H]3[C@@H]1CC[C@@H]2O [ESTRADIOL BENZOATE],EC50,[2],2.24 µM (active)
same,EC50,Streptokinase A,2.43 µM (active)
same,EC50,Streptococcus,4.49 µM (active)

# Reference: ChEMBL document CHEMBL1201862, “PubChem BioAssay data set” (2004)
